Source: patent publication US8420889B2, “Epicatechin glucosyltransferase” (priority 2008, dated 2013)

Tested on: recombinant UGT72L1-MBP
Test: UGT72L1 glucosyltransferase assay with potential acceptor substrates and 14C-UDP-Glucose
Description: All assays were performed in triplicate for 1 hour at 30° C. along with boiled enzyme controls.
For studying pH optima, the buffers were 179 mM MES pH 5.0-7.0, and 179 mM Tris-HCl pH 7.0-9.0. Potential acceptor substrates were (−)-epicatechin, (−)-epigallocatechin, (+)-catechin, (+)-gallocatechin, procyanidins B1 and B2, cyanidin, dihydroquercetin, quercetin, kaemferol, apigenin, luteolin, liquiritigenin, daidzein and genistein (Sigma-Aldrich, St Louis, Mo.).

[1] = UDP-glucose as sugar donor, 0.1 mM acceptor substrate, 1 hour at 30° C., pH 7.5

Row | Compound | activity for glucosylation (in words) [1] | other results
1 | O=c1c(-c2ccc(O)cc2)coc2cc(O)cc(O)c12 [genistein] | not active | 
2 | Oc1cc(O)c2c(c1)O[C@H](c1cc(O)c(O)c(O)c1)[C@H](O)C2 [(−)-epigallocatechin] |  | activity for glucosylation, relative to the activity with epicatechin [1]: 27%
3 | O=c1cc(-c2ccc(O)c(O)c2)oc2cc(O)cc(O)c12 [luteolin] | not active | 
4 | O=C1c2c(O)cc(O)cc2O[C@H](c2ccc(O)c(O)c2)[C@H]1O [dihydroquercetin] | not active | 
5 | O=c1c(O)c(-c2ccc(O)c(O)c2)oc2cc(O)cc(O)c12 [quercetin] | not active | 
6 | Oc1cc(O)c2c(c1)O[C@H](c1ccc(O)c(O)c1)[C@H](O)C2 [(−)-epicatechin] |  | Km (recombinant MBP-UGT72L1 fusion protein): 11.5 µM
7 | O=c1cc(-c2ccc(O)cc2)oc2cc(O)cc(O)c12 [apigenin] | not active | 
